SMILES strings stand for the structures.

The target in the assay is Kappa-type opioid receptor (Homo sapiens) (UniProt P41145). Nature of the assay: kappa opioid receptor antagonism potency – cell-based, fluorescence, dose response, late-stage follow-up (AID 652032). As to conditions: OPRK1-expressing cells, fluorescence antagonist read-out.
Kappa-type opioid receptor (Homo sapiens), sequence (P41145 whole entry, looked up): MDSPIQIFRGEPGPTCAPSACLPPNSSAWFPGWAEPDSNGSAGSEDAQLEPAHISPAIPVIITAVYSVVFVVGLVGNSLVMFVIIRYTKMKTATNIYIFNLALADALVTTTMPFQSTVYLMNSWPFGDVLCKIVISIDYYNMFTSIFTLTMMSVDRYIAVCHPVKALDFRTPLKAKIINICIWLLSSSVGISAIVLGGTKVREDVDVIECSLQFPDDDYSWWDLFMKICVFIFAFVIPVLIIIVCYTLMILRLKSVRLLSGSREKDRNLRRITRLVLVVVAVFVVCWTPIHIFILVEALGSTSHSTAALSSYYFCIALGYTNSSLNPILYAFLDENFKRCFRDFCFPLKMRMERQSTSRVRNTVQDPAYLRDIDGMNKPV

As usually defined, the IC50 is the concentration at which inhibition is half-maximal. Consider `COC(=O)c1cc(Br)cnc1N1CCC(CNC2CCCCC2)CC1`, for which the IC50 is 3500 nM. As to `O=C(O)c1cc(Br)cnc1N1CCC(NC2CCCCC2)CC1`, the IC50 is 5200 nM. For `COC(=O)c1cc(Br)cnc1N1CCC(NC2CCCCCC2)CC1` the value was 110 nM.

Regarding `COC(=O)c1cc(Br)cnc1N1CCC(NCCO)CC1`, the half-maximal inhibitory concentration (IC50) was 9200 nM. For `COC(=O)c1cc(Br)cnc1N1CCC(NC2CCCC(O)C2)CC1` (configuration not stated) the value was 652 nM. On to `COC(=O)c1cc(Cl)cnc1N1CCC(NC2CCCCC2)CC1`, for which the half-inhibitory concentration (IC50) is 159 nM. For the molecule `CC(C)OC(=O)c1cc(Br)cnc1N1CCC(NC2CCCCC2)CC1`, the IC50 was 398 nM. For `COC(=O)c1cc(Br)cnc1N1CCC(NC2CCOCC2)CC1` the value was 621 nM; for `COC(=O)c1cc(Br)cnc1N1CCC(NC2CCCCC2)CC1`, 133 nM; for `COC(=O)c1cc(Br)cnc1N1CCC(N[C@@H]2CCCC[C@H]2O)CC1`, 231 nM. `COC(=O)c1cc(Br)cnc1N1CCC(N(C)C2CCCCC2)CC1`: the IC50 is 2700 nM.

In the case of `COC(=O)c1cc(Br)cnc1N1CCC(N)C(O)C1` (configuration not stated), the 50% inhibitory concentration (IC50) is 5900 nM. On to `COC(=O)c1cccnc1N1CCC(NC2CCCCC2)C(O)C1` (configuration not stated), for which the IC50 is 2200 nM. In the case of `COC(=O)c1cc(Br)cnc1N1CCC(NC2CCCCC2)C1` (configuration not stated), the IC50 was 185 nM. For `COC(=O)c1cc(Br)cnc1N1CCC(NC2CCCCC2OC)CC1` (configuration not stated) the value was 267 nM; for `COC(=O)c1cc(F)cnc1N1CCC(NC2CCCCC2)CC1`, 6600 nM; for `COC(=O)c1cc(Br)cnc1N1CCC(NC2CCCC2)CC1`, 120 nM. For the molecule `COC(=O)c1cc(I)cnc1N1CCC(NC2CCCCC2)CC1`, the IC50 was 79 nM. The value for `COC(=O)c1cc(Br)cnc1N1CCC(N[C@H](C)C2CCCCC2)CC1` was 6800 nM.

As for `COC(=O)c1cc(NC(C)=O)cnc1N1CCC(NC2CCCCC2)CC1`, the IC50 is 628 nM. In the case of `CCOC(=O)c1cc(C(=O)OC)c(C)nc1N1CCC(NC2CCCCC2)CC1`, the IC50 was 2600 nM.

In the case of `COC(=O)c1cc(Br)cnc1N1CCC(NC2CCC(C)CC2)CC1` (configuration not stated), the IC50 was 536 nM.
